Measurements reported in patent publication EP4660184A1 (Eurofarma Laboratórios S.A., priority 2023, dated 2024).

Experiments:
[1] = target: T1, human sodium channels Nav 1.8 (Homo sapiens, UniProt Q9Y5Y9); experiment: Automated whole-cell voltage-clamp (ScreenPatch 384P) sodium current block, Nav 1.8; type: cell-based; settings: CHO cells stably expressing human Nav 1.8; inactivation step -40 mV for 8 seconds, test step 10 mV (TP1A); exposure at least five minutes; room temperature; mean if two or more assays; read-out: Nav1.8 IC50
T1 construct: expressed in transfected cells
How it was run: (§1)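 CHO cells stably expressing human Nav1.7 or Nav1.8 were recorded by automated whole-cell clamp with ≥5 min compound exposure, eight concentrations, at room temperature, pH 7.4 external. From -100 mV, cells were held at -40 mV for 8 s, then -100 mV for 20 ms, then a test pulse at 10 mV (Nav1.8) or 0 mV (Nav1.7), at 0.05 Hz. Peak current % block was fitted to give IC50, averaged across assays.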

[2] = target: T2, human sodium channels Nav 1.7 (Homo sapiens, UniProt Q15858); experiment: Automated whole-cell voltage-clamp (ScreenPatch 384P) sodium current block, Nav 1.7; type: cell-based; settings: CHO cells stably expressing human Nav 1.7; inactivation step -40 mV for 8 seconds, test step 0 mV (TP1A); exposure at least five minutes; room temperature; mean if two or more assays; read-out: Nav1.7 IC50
T2 construct: expressed in transfected cells
How it was run: as §1

T1 sequence (Q9Y5Y9 whole entry): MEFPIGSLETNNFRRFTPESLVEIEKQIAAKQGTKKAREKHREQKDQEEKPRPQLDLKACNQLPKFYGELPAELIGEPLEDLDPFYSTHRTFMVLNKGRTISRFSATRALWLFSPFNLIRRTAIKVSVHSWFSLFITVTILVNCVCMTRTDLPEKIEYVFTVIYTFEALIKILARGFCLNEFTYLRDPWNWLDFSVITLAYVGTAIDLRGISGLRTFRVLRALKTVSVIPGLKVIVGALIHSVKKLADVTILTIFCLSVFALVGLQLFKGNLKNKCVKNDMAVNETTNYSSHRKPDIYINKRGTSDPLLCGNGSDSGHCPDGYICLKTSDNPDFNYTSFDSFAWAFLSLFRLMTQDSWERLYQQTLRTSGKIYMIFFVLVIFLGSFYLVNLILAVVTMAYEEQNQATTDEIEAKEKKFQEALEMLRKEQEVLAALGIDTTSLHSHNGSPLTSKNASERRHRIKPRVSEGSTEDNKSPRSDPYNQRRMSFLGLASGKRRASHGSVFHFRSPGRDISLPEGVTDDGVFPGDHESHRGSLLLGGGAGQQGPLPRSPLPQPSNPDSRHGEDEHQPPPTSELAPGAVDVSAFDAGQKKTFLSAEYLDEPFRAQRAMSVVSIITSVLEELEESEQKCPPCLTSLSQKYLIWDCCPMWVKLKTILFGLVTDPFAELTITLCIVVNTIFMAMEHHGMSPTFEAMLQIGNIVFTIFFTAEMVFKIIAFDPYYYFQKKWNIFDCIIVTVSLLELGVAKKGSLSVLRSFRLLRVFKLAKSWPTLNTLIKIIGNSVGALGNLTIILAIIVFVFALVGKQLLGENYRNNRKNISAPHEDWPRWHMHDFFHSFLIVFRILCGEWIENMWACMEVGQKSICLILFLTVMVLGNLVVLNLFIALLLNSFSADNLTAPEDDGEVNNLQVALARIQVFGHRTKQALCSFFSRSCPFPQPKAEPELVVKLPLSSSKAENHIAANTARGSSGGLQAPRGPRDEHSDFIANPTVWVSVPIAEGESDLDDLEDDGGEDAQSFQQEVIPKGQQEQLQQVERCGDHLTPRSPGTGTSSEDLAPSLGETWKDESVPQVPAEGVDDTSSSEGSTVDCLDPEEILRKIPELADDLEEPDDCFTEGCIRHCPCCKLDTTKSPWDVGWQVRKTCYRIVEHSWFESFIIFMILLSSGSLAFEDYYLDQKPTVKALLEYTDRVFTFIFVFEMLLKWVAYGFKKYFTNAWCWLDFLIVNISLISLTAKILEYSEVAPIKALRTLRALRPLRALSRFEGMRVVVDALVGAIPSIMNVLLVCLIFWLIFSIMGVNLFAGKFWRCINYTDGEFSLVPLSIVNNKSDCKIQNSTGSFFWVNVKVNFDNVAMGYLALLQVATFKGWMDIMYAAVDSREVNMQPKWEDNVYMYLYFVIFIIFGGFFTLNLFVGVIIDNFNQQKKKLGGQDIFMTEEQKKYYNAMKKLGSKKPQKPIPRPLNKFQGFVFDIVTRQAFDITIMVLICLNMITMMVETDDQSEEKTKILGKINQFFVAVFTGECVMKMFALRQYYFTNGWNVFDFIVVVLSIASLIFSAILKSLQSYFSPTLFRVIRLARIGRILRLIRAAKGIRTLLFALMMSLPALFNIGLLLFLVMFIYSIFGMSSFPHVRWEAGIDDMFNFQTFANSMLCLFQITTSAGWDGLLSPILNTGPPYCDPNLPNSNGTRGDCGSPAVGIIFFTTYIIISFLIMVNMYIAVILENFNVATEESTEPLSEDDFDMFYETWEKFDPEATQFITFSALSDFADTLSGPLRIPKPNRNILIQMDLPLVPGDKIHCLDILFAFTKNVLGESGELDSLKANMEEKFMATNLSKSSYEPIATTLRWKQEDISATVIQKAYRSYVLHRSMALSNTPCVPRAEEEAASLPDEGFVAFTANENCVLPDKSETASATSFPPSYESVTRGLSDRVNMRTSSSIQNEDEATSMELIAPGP
T2 sequence (Q15858 whole entry): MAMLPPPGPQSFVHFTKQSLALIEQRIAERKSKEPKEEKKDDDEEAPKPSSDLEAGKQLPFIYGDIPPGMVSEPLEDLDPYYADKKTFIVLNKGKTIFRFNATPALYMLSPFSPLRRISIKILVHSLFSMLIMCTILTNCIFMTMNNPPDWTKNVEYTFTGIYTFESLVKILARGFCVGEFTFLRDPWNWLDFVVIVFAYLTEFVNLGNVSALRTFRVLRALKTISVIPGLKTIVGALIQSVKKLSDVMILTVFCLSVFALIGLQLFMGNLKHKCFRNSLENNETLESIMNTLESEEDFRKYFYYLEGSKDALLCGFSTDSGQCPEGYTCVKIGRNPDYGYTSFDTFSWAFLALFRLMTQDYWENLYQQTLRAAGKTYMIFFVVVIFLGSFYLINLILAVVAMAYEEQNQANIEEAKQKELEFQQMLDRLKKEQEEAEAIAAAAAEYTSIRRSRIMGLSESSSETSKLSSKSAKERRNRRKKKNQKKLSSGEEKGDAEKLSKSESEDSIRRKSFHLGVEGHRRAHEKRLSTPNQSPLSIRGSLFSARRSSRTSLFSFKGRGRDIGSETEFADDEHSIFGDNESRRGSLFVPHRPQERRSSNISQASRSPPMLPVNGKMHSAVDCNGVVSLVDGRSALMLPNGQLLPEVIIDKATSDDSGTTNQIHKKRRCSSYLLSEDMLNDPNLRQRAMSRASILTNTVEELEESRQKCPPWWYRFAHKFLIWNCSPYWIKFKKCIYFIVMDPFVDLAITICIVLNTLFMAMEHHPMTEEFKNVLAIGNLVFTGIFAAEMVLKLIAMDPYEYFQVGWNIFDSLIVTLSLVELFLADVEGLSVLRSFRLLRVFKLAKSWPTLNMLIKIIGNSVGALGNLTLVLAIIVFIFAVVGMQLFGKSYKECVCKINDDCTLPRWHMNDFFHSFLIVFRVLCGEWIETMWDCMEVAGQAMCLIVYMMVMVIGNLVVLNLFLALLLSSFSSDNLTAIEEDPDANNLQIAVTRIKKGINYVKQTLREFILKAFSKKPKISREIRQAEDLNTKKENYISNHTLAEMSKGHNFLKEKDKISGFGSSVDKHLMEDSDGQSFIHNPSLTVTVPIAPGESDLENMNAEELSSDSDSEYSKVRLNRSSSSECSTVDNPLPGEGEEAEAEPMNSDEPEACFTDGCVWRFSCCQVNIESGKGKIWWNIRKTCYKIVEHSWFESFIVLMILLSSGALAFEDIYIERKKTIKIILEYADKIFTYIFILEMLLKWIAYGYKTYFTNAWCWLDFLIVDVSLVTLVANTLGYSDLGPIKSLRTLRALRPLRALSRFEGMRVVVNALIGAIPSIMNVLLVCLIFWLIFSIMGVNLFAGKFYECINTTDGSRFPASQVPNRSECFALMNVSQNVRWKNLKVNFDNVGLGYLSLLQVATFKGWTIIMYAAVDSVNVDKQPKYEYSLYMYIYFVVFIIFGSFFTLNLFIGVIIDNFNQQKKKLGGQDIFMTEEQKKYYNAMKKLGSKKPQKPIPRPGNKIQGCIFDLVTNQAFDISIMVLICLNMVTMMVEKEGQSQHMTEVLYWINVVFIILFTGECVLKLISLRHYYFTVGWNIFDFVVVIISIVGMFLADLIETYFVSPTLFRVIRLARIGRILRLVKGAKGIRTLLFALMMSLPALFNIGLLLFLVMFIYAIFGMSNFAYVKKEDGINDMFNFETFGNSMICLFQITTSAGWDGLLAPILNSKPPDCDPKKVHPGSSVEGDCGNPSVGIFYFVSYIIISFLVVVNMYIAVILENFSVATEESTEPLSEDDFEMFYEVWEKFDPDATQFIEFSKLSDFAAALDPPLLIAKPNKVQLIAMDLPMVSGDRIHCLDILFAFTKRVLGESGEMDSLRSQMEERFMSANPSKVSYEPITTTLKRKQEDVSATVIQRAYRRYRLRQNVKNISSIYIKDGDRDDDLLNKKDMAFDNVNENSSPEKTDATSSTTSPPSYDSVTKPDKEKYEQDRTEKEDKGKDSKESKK

SMILES: CCOc1ccc(-c2cncc(C(=O)NOCc3[nH]ccc3C)n2)cn1 [Compound 67, 6-(6-ethoxypyridine-3-yl)-N-((3-methyl-1H-pyrrole-2-yl)methoxy)pyrazine-2-carboxamide]
- IC50 [1]: < 500 nM
- IC50 [2]: > 1000 nM

SMILES: COc1ccc(F)c(CONC(=O)c2cncc(-c3ccc(OC(C)C)cc3)n2)c1 [Compound 3, N-((2-fluoro-5-methoxybenzyl)oxy)-6-(4-isopropoxyphenyl)pyrazine-2-carboxamide]
- IC50 [1]: < 500 nM
- IC50 [2]: < 500 nM

SMILES: CCOc1cc(C)c(-c2cncc(C(=O)NOCc3cc(OC)ccc3F)n2)cn1 [Compound 93]
- IC50 [1]: > 1000 nM
- IC50 [2]: > 1000 nM

SMILES: CCOc1ccc(-c2cncc(C(=O)NOCc3ccccc3O)n2)cn1 [Compound 34, 6-(6-ethoxypyridine-3-yl)-N-((2-hydroxybenzyl)oxy)pyrazine-2-carboxamide]
- IC50 [1]: > 1000 nM
- IC50 [2]: > 1000 nM

SMILES: CCOc1ccc(-c2cccc(C(=O)NOCc3cc(OC)cnc3F)n2)cn1 [Compound 107]
- IC50 [1]: > 1000 nM
- IC50 [2]: > 1000 nM
